Reference: ChEMBL document CHEMBL3734680, “Synthesis and relationship of stability and biological activity of new DSS and TMP conjugates” (Medchemcomm, 2015)
The source made the active and inactive calls. No cut-off for these calls is given here.

Assays:
carboxyesterase = assay: Half life of compound assessed as carboxyesterase (unknown origin)-mediated drug degradation at 0.655 x 10^3 uM by HPLC analysis; format: ADME; conditions: human
H9c2 [1] = assay: Cardioprotective activity against t-BHP-induced injury in rat H9c2 cells preincubated for 1 hr followed by t-BHP challenge for 12 hrs by MTT assay; format: functional, cell-based
H9c2 [2] = assay: Induction of mitochondrial biogenesis in rat H9c2 cells assessed as upregulation of PGC-1beta mRNA expression at 30 uM after 24 hrs by RT-PCR analysis relative to control; format: functional, cell-based
H9c2 [3] = assay: Cardioprotective activity against doxorubicin-induced injury in rat H9c2 cells assessed as inhibition of LDH leakage preincubated for 1 hr followed by doxorubicin challenge for 24 hrs; format: functional, cell-based
H9c2 [4] = assay: Cardioprotective activity against doxorubicin-induced injury in rat H9c2 cells preincubated for 1 hr followed by doxorubicin challenge for 24 hrs by MTT assay; format: functional, cell-based
H9c2 [5] = assay: Induction of mitochondrial biogenesis in rat H9c2 cells assessed as mitochondrial DNA replication after 24 hrs by Mitotracker/DAPI/FITC-staining based immunofluorescence analysis relative to control; format: functional, cell-based
H9c2 [6] = assay: Induction of mitochondrial biogenesis in rat H9c2 cells assessed as upregulation of Tfam mRNA expression at 30 uM after 24 hrs by RT-PCR analysis relative to control; format: functional, cell-based

half-life (carboxyesterase) [min]	SMILES	Activity (H9c2 [1])	Activity (H9c2 [2])	Activity (H9c2 [3])	Activity (H9c2 [4])	Activity (H9c2 [5])	Activity (H9c2 [6])
10.6	CC(=O)Oc1ccc(C[C@@H](OC(C)=O)C(=O)OC(C)c2nc(C)c(C)nc2C)cc1OC(C)=O (stereo partly drawn)	Active					
11.3	C=CCC(OC(=O)[C@@H](Cc1ccc(OC(C)=O)c(OC(C)=O)c1)OC(C)=O)c1nc(C)c(C)nc1C (stereo partly drawn)	Active					
10.3	CC(=O)Oc1ccc(CC(OC(C)=O)C(=O)OCc2nc(C)c(C)nc2C)cc1OC(C)=O (stereo not drawn)	Active					
20.5	C=CCC(CC=C)(OC(=O)[C@@H](Cc1ccc(OC(C)=O)c(OC(C)=O)c1)OC(C)=O)c1nc(C)c(C)nc1C	Active	Active	Dose-dependent effect	Dose-dependent effect	Active	Active
